According to patent US20220403337A1, “CELL REPROGRAMMING METHOD” (priority 2019, published 2022):
Each block holds one molecule with its values, some of them ahead of it.

Columns and labels:
Format in all cases: cell-based
[1] = test system: Nanog, Klf4, Oct4, and Sox2; assay: PCR for expression of undifferentiated markers; settings: human skin fibroblasts processed with 2-mercaptoethanol and reprogrammed (FIG. 4 lane 3)
Procedure: Whether gene expression had been generated was examined on Nanog, Klf4, Oct4, and Sox2 as the undifferentiated markers. The RNA was collected from the cells using a RNeasy Mini Kit (QIAGEN). PCR was performed on the above-described various kinds of undifferentiated markers using the method described in Cell. 2007 Nov 30; 131(5): 861-72.

[2] = test system: Normal human skin fibroblasts (adult); assay: Extinction of cells at high 2-mercaptoethanol concentration; settings: D-MEM medium
Procedure: (§1) Normal human skin fibroblasts (adult) (Takara Bio) were seeded to a spheroid plate, and after 24 to 48 hours, medium exchange was performed on a D-MEM (Low Glucose) medium to which 2-mercaptoethanol diluted by 1/100000 (142 μM) was added. Then, after three to four days, medium exchange was performed again on the same D-MEM medium.
(§2) The processes similar to those of the above-described items 1 and 2 were performed to examine the concentration of 2-mercaptoethanol. Specifically, except that the concentration of 2-mercaptoethanol was set to 0.142 μM, 1.42 μM, 14.2 μM, 142 μM, 1.42 mM, 14.2 mM, and 142 mM, the operations same as those in the items 1 and 2 were performed.

[3] = test system: Normal human skin fibroblasts (adult); assay: Reprogramming of human skin fibroblasts: change in form, spheroid formation, alkaline phosphatase stain
Procedure: as §1
Then, after three or four days, the medium exchange was performed again on the same medium.
The alkaline phosphatase reaction of the cells finally obtained by the above-described culture was examined. The stain of alkaline phosphatase was performed in accordance with the operating manual attached to the kit using Alkaline Phosphatase Live Stain (Invitrogen). Specifically, the cells were cultured for 30 minutes in a medium in which a staining fluid (AP Live Stain) attached to the kit diluted by 500 times was added in the D-MEM. Afterwards, the medium was exchanged and cleaning was performed for five minutes x two times.
as §2
Similarly to the item 1, after performing the culture in the D-MEM medium containing the 2-mercaptoethanol (142 μM), LIF (wako, used by 1:1000), ACTH (wako, 10 μmol/L), bFGF (wako, 0.34 nmol/L), and AR-A014418 (Merck, 3 μM) were added in this medium and further the cells were cultured for one week. As a result, both of spheroid formation of the cells and the alkaline phosphatase stain were observed.
In the item 1, when (i) only the LIF, (ii) only the ACTH, or (iii) only the LIF and the ACTH were added to the ADSC-4 medium for culture, spheroid formation of the cells and the alkaline phosphatase stain were observed under any conditions.

[4] = test system: normal human skin fibroblast (adult); assay: Effect by CCL2 added to LIF on reprogramming (cell form)
Procedure: The CCL2 was added to the LIF and an influence given to reprogramming was verified. In accordance with Working Example 1, while medium exchange was performed on a normal human skin fibroblast (adult) (the Takara Bio) in a D-MEM medium containing 2-mercaptoethanol (142 μM) for three to four days, culture was performed for seven days. Next, culture was performed for additional seven days in a medium in which (i) only LIF, (ii) LIF+CCL2 (10 ng/mL), or (iii) LIF+CCL2 (100 ng/mL) were added to an ADSC-4 medium. Note that the LIF was used by 1:1000.

[5] = culture only in D-MEM containing 2-mercaptoethanol (142 μM), no step (b)
[6] = after 2-mercaptoethanol (142 μM) step, only the named factor(s) added to ADSC-4 medium

Molecule: OCCS [2-mercaptoethanol]
- expression of undifferentiated markers Nanog, Klf4, Oct4, and Sox2 (PCR bands around targeted sizes) [1]: bands were able to be confirmed
- 2-mercaptoethanol concentration at which extinction of the cells was observed [2]: ≥ 14.2 mM
- change in form of the cells ([3]; 142 μM in D-MEM (Low Glucose), cultured for one week): the change in form of the cells was confirmed
- spheroid formation of the cells and alkaline phosphatase stain ([3]; 142 μM in D-MEM, then LIF, ACTH, bFGF, AR-A014418 added in this same medium, one further week): observed
- spheroid formation ([3]; 142 μM one week, then one week in ADSC-4 with LIF 1:1000, ACTH 10 μmol/L, bFGF 0.34 nmol/L, AR-A014418 3 μM): forming spheroids
- alkaline phosphatase stain (AP Live Stain, fluorescence microscope) ([3]; 142 μM one week, then one week in ADSC-4 with LIF, ACTH, bFGF, AR-A014418): the stain was observed
- spheroid formation of the cells and alkaline phosphatase stain ([3]; 2-mercaptoethanol at 0.142 μM to 1.42 mM in step (a), then ADSC-4 with LIF, ACTH, bFGF, AR-A014418): observed
- alkaline phosphatase stain ([3]; 2-mercaptoethanol at 14.2 μM to 1.42 mM in step (a), then ADSC-4 with LIF, ACTH, bFGF, AR-A014418): especially strongly observed
- alkaline phosphatase stain [3, 5]: weak
- spheroid formation of the cells [3, 5]: observed

Molecule: ACTH: adrenocorticotropic hormone (wako, 10 μmol/L) (SYSMEHFRWGKPVGKKRRPVKVYPNGAEDESAEAFPLEF; Corticotropin; UniProt P01189 138-176, looked up)
- spheroid formation of the cells and alkaline phosphatase stain [3, 6]: observed

Molecule: CCL2: chemokine (C-C motif) ligand 2, OCT3/4 transcription stimulating factor
- cell aggregation on addition of CCL2 to LIF ([4]; contours between cells clarified, divergence of cell adhesion recognized (FIG. 13D)): remarkable

- alkaline phosphatase stain (strength) [3, 6]: especially observed strongly
Molecule: LIF: leukemia inhibiting factor, OCT3/4 transcription stimulating factor (wako, used by 1:1000)
- change in form of the cells ([4]; (i) only LIF 1:1000 in ADSC-4, seven days, after 2-mercaptoethanol (142 μM) seven days): confirmed
- spheroid formation of the cells and alkaline phosphatase stain [3, 6]: observed
